Data published in paper PMC7385359.
Several values for one entry are separate records, joined by “and”; a condition that tells them apart may be missing. Equal values may be shown once.

Experiment: not told

| log partition 1-octanol / water | Structure (SMILES) |
| --- | --- |
| 0.19 log10 | COC(=O)C1CC2(CC2)CN1C(C)=O (centres unmarked) |
| 0.18 log10 and 0.03 log10 | COC(=O)C1CC2(CN1C(C)=O)CC2(F)F (centres unmarked) |
